In one assay the test system is MCF-7 cells. Kind of assay: Antiproliferative assay, MCF-7 cells. Conditions: read-out: MCF-7 50% cell growth inhibition. It is filed as cell-based. As for the experimental part:
Two widely used human breast cancer cell lines were evaluated for sensitivity to the cytotoxic effects of the naphthoquinone spiroketals. MCF-7 cells were originally derived from an adenocarcinoma of the breast and retain several characteristics of differentiated mamnmary epithelium including the ability to process estradiol via cytoplasmic estrogen receptors. MCF-7 cells express the tumor suppressor gene product p53, which is required for the programmed cell death or apoptosis caused by many agents. (Foster, B. A.; Coffey, H. A.; Morin, M. J.; Rastinejad, F. Science 1999, 286, 2507).
The proliferation of MCF-7, MDA-MB-231 and SV40 transformed mouse embryonic fibroblasts was measured by a previously described colorimetric assay (Wipf P, Jung J-K, Rodriguez S, Lazo JS Synthesis and biological evaluation of Deoxypreussomerin A and Palmarumycin CP 1 and related naphthoquinone spiroketals. Tetrahedron 57:283-296, 2001 and Vogt A, Rice RL, Settineri CE, Yokokawa F, Yokokawa S, Wipf P and Lazo JS (1998) Disruption of insulin-like growth factor-I signaling and down-regulation of Cdc2 by SC-ααδ9, a novel small molecule antisignaling agent identified in a targeted array library. J Pharmacol Exptl Therap 287:806-813.). Briefly, the inventors seeded 4,000-6,000 cells per well in microtiter plates. Cells were allowed to attach overnight and treated with vehicle or compounds for 72 h, after which the medium was replaced with serum free medium containing 0.1% 3-[4,5-dimethylthiazol-2-yl]-2,5-diphenyl tetrazolium bromide. Plates were incubated for 3 hours in the dark and total cell number was determined by spectrophotometrically at 540 nm as previously described (Vogt A, Rice RL, Settineri CE, Yokokawa F, Yokokawa S, Wipf P and Lazo JS (1998) Disruption of insulin-like growth factor-1 signaling and down-regulation of Cdc2 by SC-ααδ9, a novel small molecule antisignaling agent identified in a targeted array library. J Pharmacol Exptl Therap 287:806-813.). […] Cells were maintained in RPMI 1640 medium containing 10% fetal bovine serum and the paclitaxel-resistant cells also contained 17 nM paclitaxel and 10 μM verapamil. Cells were plated (2,000/well) in 96-well plates and allowed to attach and grow for 72 hours (paclitaxel and verapamil were removed from resistant cell medium two weeks prior to this plating). They were then treated with 0.5% DMSO vehicle control or 0.08-10 μM compound. The number of cells was determined spectrophotometrically at 490 nm minus absorbance at 630 nm after exposure to 3-(4,5-dimethylthiazol-2-yl)-5-(3-carboxymethoxyphenyl)-2-(4-sulfophenyl)-2H-tetrazolium and N-methyldibenzopyurazine methyl sulfate. […]

The next assay deals with T1, TrxR (Homo sapiens, UniProt Q16881).
T1 construct: Thioredoxin reductase was purified from human placenta as previously described; from tissue; host or cells: human placenta
T1 sequence (Q16881 1-499 isoform Q16881-5): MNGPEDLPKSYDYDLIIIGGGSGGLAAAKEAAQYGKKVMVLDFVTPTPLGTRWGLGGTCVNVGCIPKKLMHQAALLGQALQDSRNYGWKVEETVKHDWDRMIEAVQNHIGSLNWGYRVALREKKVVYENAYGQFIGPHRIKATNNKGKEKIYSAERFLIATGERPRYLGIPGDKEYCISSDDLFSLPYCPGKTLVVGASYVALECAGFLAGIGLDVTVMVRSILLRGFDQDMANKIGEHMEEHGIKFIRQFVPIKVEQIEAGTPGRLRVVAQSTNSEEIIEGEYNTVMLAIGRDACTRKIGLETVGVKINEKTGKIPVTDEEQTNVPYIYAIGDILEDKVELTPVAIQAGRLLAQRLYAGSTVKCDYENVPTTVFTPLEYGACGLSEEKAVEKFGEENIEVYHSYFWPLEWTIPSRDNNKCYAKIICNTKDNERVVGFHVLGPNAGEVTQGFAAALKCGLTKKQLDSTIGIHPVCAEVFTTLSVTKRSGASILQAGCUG
Kind of assay: Thioredoxin reductase (TrxR) DTNB reduction assay. Conditions: calculated from 5 concentrations (0.1 to 50 μM). It is filed as biochemical. How it is done:
Thioredoxin reductase was purified from human placenta as previously described (Oblong, J.E.; Gasdaska, P.Y.; Sherrill, K.; Powis,G. Biochemistry 1993, 32, 7271) and recombinant human Trx-1 was prepared as previously described (Gasdaska, P.Y.; Oblong, J.E.; Cotgreave, I.A.; Powis,G. Biochem.Biophys.Acta 1994 ,1218 ,292). TrxR and Trx-1/TrxR activities were measured spectrophotometrically using previously published microtiter plate colorimetric assays, based on the increase in absorbance at 405 nm which occurs as dithionitrobenzoic acid (DTNB) is reduced by the enzyme-mediated transfer of reducing equivalents from NADPH (Gasdaska et al., Biochem.Biophys.Acta 1994 ,1218,292). Trx-1/TrxR-dependent insulin reducing activity was measured in an incubation with a final volume of 60 μL containing 100 mM HEPES buffer, pH 7.2,5 mM EDTA (HE buffer),1 mM NADPH, […],0.8 μM Trx-1 and 2.5 mg/mL bovine insulin. Incubations were for 30 min at 37 ° C. in flat-bottom 96-well microtiter plates. The reaction was stopped by the addition of 100 μL of 6 M guanidine-HC1, 50 mM Tris, pH 8.0, and 10 mM DTNB, and the absorbance measured to 405 nm. TrxR activity was measured in a final incubation volume of 60 μL containing HE buffer, 10 mM DTNB, 1.0 μM TrxR and 1 mM NADPH. Compounds were diluted in HE buffer and added to the wells as 20 μL aliquots, and TrxR was then added,also as 20 μL aliquots in HE buffer. To start the reaction NADPH and DTNB were added as a 20 μL aliquot in HE buffer and the plate was moved to the plate reader which had been preheated to 37 ° C. The optical density at 405 nm was measured every 10 s and initial reaction rates were measured.

Each structure is given as a SMILES string. Like-named read-outs stand apart in the source and are kept apart here. A value given as a limit tells only on which side of the number the result lay.

On to `O=C1C=CC2(Oc3cccc4cccc(c34)O2)c2cccc(OC/C=C/c3ccccc3)c21` [SR-1, (E)-8-(3-phenyl-allyloxy)-1-oxo-1,4-dihydronaphthalene-4-spiro-2′-naphto[1″, 8″-de] [1′,3′] dioxin], for which the IC50 in the assay with MCF-7 cells (Homo sapiens, MCF7, 72 h) was determined as 7.9 µM.

Regarding `C/C=C/COc1cccc2c1C(=O)C=CC21Oc2cccc3cccc(c23)O1` [SR-2, (E)-8-(but-2-enyloxy)-1-oxo-1,4-dihydronaphthalene-4-spiro-2′-naphto [1″,8″-de][1′,3′]dioxin], the IC50 in the assay with MCF-7 cells (Homo sapiens, MCF7, 72 h) is 1.3 µM.

Turning to `CCCCCCOc1cccc2c1C(=O)C=CC21Oc2cccc3cccc(c23)O1` [SR-3, 8-hexyloxy-1-oxo-1,4-dihydronaphthalene-4-spiro-2′-naphto [1″,8″-de] [1′,3′] dioxin], the IC50 in the assay with MCF-7 cells (Homo sapiens, MCF7, 72 h) worked out at 13.4 µM.

As for `COc1cccc(COc2cccc3c2C(=O)C=CC32Oc3cccc4cccc(c34)O2)c1` [SR-5, 8-(3-methoxy-benzyloxy)-1-oxo-1,4-dihydronaphthalene-4-spiro-2′-naphto [1″,8″-de][1′,3′] dioxin], the IC50 with MCF-7 cells (Homo sapiens, MCF7, 72 h) is 2.3 µM.

For the molecule `O=C1C=CC2(Oc3cccc4cccc(c34)O2)c2cccc(OCCc3ccccc3)c21` [SR-6, 8-(2-phenyl-ethoxy)-1-oxo-1,4-dihydronaphthalene-4-spiro-2′-naphto [1″,8″-de][1′,3′] dioxin], the IC50 in the assay with MCF-7 cells (Homo sapiens, MCF7, 72 h) came out at 3.9 µM.

For the molecule `O=C1C=CC2(Oc3cccc4cccc(c34)O2)c2cccc(OCc3ccco3)c21` [SR-7, 8-(furan-2-ylmethoxy)-1-oxo-1,4-dihydronaphthalene-4-spiro-2′-naphto [1″,8″-de][1′,3′] dioxin], the IC50 in the assay on MCF-7 cells (72 hours) was 1.1 µM; in the assay on MCF-7 cells (Homo sapiens, MCF7, 72 h), 1 to 2 µM.

Consider `CC(C)=CCC/C(C)=C/COc1cccc2c1C(=O)C=CC21Oc2cccc3cccc(c23)O1` [SR-9, (E,E)-8-(3,7-diemthyl-octa-2,6-dienyloxy)-1-oxo-1,4-dihydronaphthalene-4-spiro-2′-naphtol [1″,8″-de][1′,3′] dioxin], for which the IC50 with MCF-7 cells (Homo sapiens, MCF7, 72 h) amounted to 4.6 µM.

On to `O=C1C=CC2(Oc3cccc4cccc(c34)O2)c2cccc(OCc3ccoc3)c21` [SR-10, 8-(furan-3-ylmethoxy)-1-oxo-1,4-dihydronaphthalene-4-spiro-2′-naphto [1′,8′-de][1′,3′] dioxin], for which the IC50 on TrxR was greater than 50 µM; with MCF-7 cells (Homo sapiens, MCF7, 72 h) it was 2 µM.

`O=C1C=CC2(Oc3cccc4cccc(c34)O2)c2cccc(OCc3ccccn3)c21` [SR-11, 8-(pyridin-2-ylmethoxy)-1-oxo-1,4-dihydronaphthalene-4-spiro-2′-naphto [1″,8″-de][1′,3′] dioxin]: the IC50 at TrxR was greater than 50 µM; with MCF-7 cells (Homo sapiens, MCF7, 72 h), 2 µM.

Turning to `O=C1C=CC2(Oc3cccc4cccc(c34)O2)c2cccc(OCc3cccnc3)c21` [SR-12, 8-(pyridin-3-ylmethoxy)-1-oxo-1,4-dihydronaphthalene-4-spiro-2′-naphto [1″,8″-de][1′,3′] dioxin], the IC50 on TrxR was greater than 50 µM; in the assay with MCF-7 cells (Homo sapiens, MCF7, 72 h) it was 1.5 µM.

As for `O=C1C=CC2(Oc3cccc4cccc(c34)O2)c2cccc(OCc3ccncc3)c21` [SR-13, 8-(pyridin-4-ylmethoxy)-1-oxo-1,4-dihydronaphthalene-4-spiro-2′-naphtol [1″,8″-de][1′,3′] dioxin], the IC50 on TrxR was greater than 50 µM; with MCF-7 cells (Homo sapiens, MCF7, 72 h), 8 µM.

Turning to `C=CCOc1cccc2c1C(=O)C=CC21Oc2cccc3cccc(c23)O1` [SR-14, 8-allyloxy-1-oxo-1,4-dihydronaphthalene-4-spiro-2′-naphto [1″,8″-de][1′,3′] dioxin], the IC50 was greater than 50 µM at TrxR and 2 µM in the assay on MCF-7 cells (Homo sapiens, MCF7, 72 h).

For `COc1ccc(COc2cccc3c2C(=O)C=CC32Oc3cccc4cccc(c34)O2)cc1` [TH-39, 8-(4-methoxy-benzyloxy)-1-oxo-1,4-dihydronaphthalene4-spiro-2-naphto [1,8-de][1, 3]dioxin], the IC50 was greater than 50 µM on TrxR and 0.7 µM with MCF-7 cells (Homo sapiens, MCF7, 72 h).

With `O=C1C=CC2(OCCO2)c2cccc(O)c21` [TH-169], the IC50 on TrxR was 8.8 µM; with MCF-7 cells (Homo sapiens, MCF7, 72 h) it was 4.2 µM.

As to `COc1cccc2c1C(=O)C=CC21OCCCO1` [TH-223], the IC50 at TrxR was greater than 50 µM; in the assay with MCF-7 cells (72 hours), 4.4 µM.

On to `O=C1C=CC2(Oc3cccc4cccc(c34)O2)c2cccc(O)c21` [palmarumycin CP1, 8-hydroxy-1-oxo-1,4-dihydronaphthalene-4-spiro-2′-naphtho[1″,8″-de] [1′,3′] dioxin, reference compound], for which the IC50 is 12 µM at TrxR; 1 µM in the assay on MCF-7 cells (72 hours); 1 to 2 µM in the assay with MCF-7 cells (Homo sapiens, MCF7, 72 h).

The record behind these values is US6673937B2, “Syntheses and methods of use of new antimitotic agents” (The University of Pittsburgh, priority 2000, dated 2004).
